Data taken from PMC117120 (BMC Biochemistry, 2002).
Changes are numbered by the printed parent chain. Several values for one entry are separate records, joined by “and”; a condition that tells them apart may be missing. Equal values may be shown once.

Assays:
wildtype mouse 5-HT3ASR = target: T1, wildtype mouse 5-HT3ASR (Mus musculus, UniProt P23979); experiment: [^3H]granisetron saturation binding, wildtype receptor
T1 sequence (P23979 24-483 isoform P23979-2 limits assumed): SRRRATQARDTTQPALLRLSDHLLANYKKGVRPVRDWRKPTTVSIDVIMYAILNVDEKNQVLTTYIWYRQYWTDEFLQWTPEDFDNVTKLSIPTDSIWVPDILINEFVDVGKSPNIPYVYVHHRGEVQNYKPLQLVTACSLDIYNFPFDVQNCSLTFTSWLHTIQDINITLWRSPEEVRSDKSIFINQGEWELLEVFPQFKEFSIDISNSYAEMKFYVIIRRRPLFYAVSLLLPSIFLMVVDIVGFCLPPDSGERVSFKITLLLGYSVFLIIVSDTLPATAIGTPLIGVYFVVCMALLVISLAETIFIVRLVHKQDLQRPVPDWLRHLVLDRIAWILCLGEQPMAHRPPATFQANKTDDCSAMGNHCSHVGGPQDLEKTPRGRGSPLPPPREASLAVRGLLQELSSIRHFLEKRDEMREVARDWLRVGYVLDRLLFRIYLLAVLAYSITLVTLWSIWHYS

[1] = target: T2, H145A mutant mouse 5-HT3ASR (Mus musculus, UniProt P23979, H146A); experiment: [^3H]granisetron saturation binding, H145A receptor; conditions: ± SE
T2 sequence (P23979 24-483 isoform P23979-2 H146A): T1 sequence (P23979 24-483 isoform P23979-2 limits assumed) with H123A

[2] = target: T3, G147A mutant mouse 5-HT3ASR (Mus musculus, UniProt P23979, G148A); experiment: [^3H]granisetron saturation binding, G147A receptor
T3 sequence (P23979 24-483 isoform P23979-2 G148A): T1 sequence (P23979 24-483 isoform P23979-2 limits assumed) with G125A

[3] = target: T4, N151A mutant mouse 5-HT3ASR (Mus musculus, UniProt P23979, N152A); experiment: [^3H]granisetron saturation binding, N151A receptor; conditions: ± SE
T4 sequence (P23979 24-483 isoform P23979-2 N152A): T1 sequence (P23979 24-483 isoform P23979-2 limits assumed) with N129A

For `CN1C2CCCC1CC(NC(=O)c1nn(C)c3ccccc13)C2` (centres unmarked) [[^3H]granisetron], the Bmax (wildtype mouse 5-HT3ASR; absence of protease inhibitor, ± SE) was 3.2 ± 0.13 pmol/mg protein and 3.2 ± .13 pmol/mg protein, the “Bmax (+ protease inhibitor)” value (wildtype mouse 5-HT3ASR; membranes prepared in the presence of protease inhibitor cocktail) was 3.1 ± 0.11 pmoles/mg protein and the “Hill coefficient (n)” value (wildtype mouse 5-HT3ASR; ± SE) was 1 ± 0.12. The Bmax [1] was 0.81 ± .07 pmol/mg protein, the “Hill coefficient (n)” value [1] was 1.38 ± 0.17 and the “binding of [^3H]granisetron” value [2] was “No detectable binding”. For the same compound, the Bmax [3] was 4.9 ± 1.1 pmol/mg protein and the “Hill coefficient (n)” value [3] was 1.66 ± 0.16.
